The assay relates to Mouse Ear Edema Induced by TPA. In words: Mouse ear edema induced by TPA. The note with it: topical, 0.3 mg/20 μL/ear × 2; ICR male mouse; 6 hours after TPA. The format is in vivo. Here is the method:
Pharmacological Test Example 2: Mouse Ear Edema Induced by TPA
This test was carried out referring to the method of Carlson, R. P. et al. (Agents and Actions, 17(2): 197–204 (1985).) and the method of Chang, J. (European Journal of Pharmacology, 142: 197–205 (1987).). More specifically, 5 μg/20 μL of TPA (Sigma Chemical Co.), dissolved with ethanol, was topically applied to the anterior and posterior surfaces of the right ear of an ICR-strain male mouse (6–7 weeks old). 6 hours later, the thickness of each ear at the particular part was respectively measured three times using a digimatic micrometer to calculate the mean value. Ear edema was determined by subtracting the mean thickness of the left ear as without treatment from that of the right ear as TPA-applied. Topical application activity was evaluated by applying an acetone solution of the compound of the present invention or 0.1% Tween 80/acetone solution thereof similarly to the anterior and posterior surfaces of the right ear 30 min. before and 15 min. after the TPA-application. […] Oral administration activity was evaluated by administrating 0.2% Tween 80 suspension of the compound of the present invention forcibly and perorally to the mouse an hour prior to the TPA-application. As the positive control, 100 mg/kg of Hydrocortisone (Sigma Chemical Co., H 4001) suspension was applied to the mouse similarly as for the compound of the present invention.

For the molecule `CCOC(=O)C(=C1N[C@@H](C)[C@H](c2ccc(Cl)cc2)S1)[N+](=O)[O-]` (relative stereo) [Compound 2-29, Trans-5-(4-chlorophenyl)-4-methyl-2-(1-ethoxycarbonyl-1-nitromethylene)-thiazolidine], the “Ear Edema Inhibition (%)” value was found to be 78.6%.
